The results in this text go back to US20080070954A1, “Acylurea Connected And Sulfonylurea Connected Hydroxamates” (S*BIO PTE LTD., priority 2003, published 2008).

Test [1] addresses T1, HDAC1 enzyme (recombinant GST-HDAC1) (Homo sapiens, UniProt Q13547).
T1 construct: Amplification of human HDAC1 and HDAC8 coding region from this cDNA library; made in house; host or cells: SF9 insect cells (baculovirus, pDEST20 vector)
In words: In vitro HDAC assay for determination of IC50 values (BIOMOL fluorescent-based), HDAC1. The format is biochemical. Conditions: 600 nM HDAC1 enzyme, 500 μM Flur de lys generic substrate, 2 h room temperature. On the procedure:
Human cDNA library was prepared using cultured SW620 cells. Amplification of human HDAC1 and HDAC8 coding region from this cDNA library was cloned separately into the baculovirus expression pDEST20 vector and pFASTBAC vector respectively (GATEWAY Cloning Technology, Invitrogen Pte Ltd). The pDEST20-HDAC1 and pFASTBAC-HTGST-HDAC8 constructs were confirmed by DNA sequencing. Recombinant baculovirus was prepared using the Bac-To-Bac method following the manufacturer's instruction (Invitrogen Pte Ltd). Baculovirus titer was determined by plaque assay to be about 10^8 PFU/ml.
(§1) Expression of GST-HDAC1 or HTGST-HDAC8 was done by infecting SF9 cells (Invitrogen Pte Ltd) with pDEST20-HDAC1 or pFASTBAC-GST-HDAC8 baculovirus at MOI=1 for 48 h. Soluble cell lysate was incubated with pre-equilibrated Glutathione Sepharose 4B beads (Amersham) at 4° C. for 2 h. The beads were washed with PBS buffer for 3 times. The GST-HDAC1 protein or GST-HDAC8 protein was eluted by elution buffer containing 50 mM Tris, pH8.0, 150 mM NaCl, 1% Triton X-100 and 10 mM or 20 mM reduced Glutathione. The purified GST-HDAC1 protein or purified GST-HDAC8 protein was dialyzed with HDAC storage buffer containing 10 mM Tris, pH7.5, 100 mM NaCl and 3 mM MgCl2. 20% Glycerol was added to purified GST-HDAC1 protein or purified GST-HDAC8 before storage at −80° C.
The assay has been carried out in 96 well format and the BIOMOL fluorescent-based HDAC activity assay has been applied. The reaction composed of assay buffer, containing 25 mM Tris pH 7.5, 137 mM NaCl, 2.7 mM KCl, 1 mM MgCl2, 1 mg/ml BSA, tested compounds, 500 nM HDAC8 enzyme or 600 nM HDAC1 enzyme, 200 μM Flur de lys p53 peptide substrate for HDAC8 enzyme or 500 μM Flur de lys generic substrate for HDAC1 enzyme and subsequently was incubated at room temperature for 2 h. Flur de lys Developer was added and the reaction was incubated for 10 min. Briefly, deacetylation of the substrate sensitizes it to the developer, which then generates a fluorophore. The fluorophore is excited with 360 nm light and the emitted light (460 nm) is detected on a fluorometric plate reader (Tecan Ultra Microplate detection system, Tecan Group Ltd.).
(§2) The analytical software, Prism 3.0® (GraphPad Software Inc) has been used to generate IC50 from a series of data.

Test [2] concerns the target T2, HDAC8 enzyme (recombinant GST-HDAC8) (Homo sapiens, UniProt Q9BY41).
T2 construct: Amplification of human HDAC1 and HDAC8 coding region from this cDNA library; made in house; host or cells: SF9 insect cells (baculovirus, pFASTBAC vector)
T2 sequence (Q9BY41 1-377): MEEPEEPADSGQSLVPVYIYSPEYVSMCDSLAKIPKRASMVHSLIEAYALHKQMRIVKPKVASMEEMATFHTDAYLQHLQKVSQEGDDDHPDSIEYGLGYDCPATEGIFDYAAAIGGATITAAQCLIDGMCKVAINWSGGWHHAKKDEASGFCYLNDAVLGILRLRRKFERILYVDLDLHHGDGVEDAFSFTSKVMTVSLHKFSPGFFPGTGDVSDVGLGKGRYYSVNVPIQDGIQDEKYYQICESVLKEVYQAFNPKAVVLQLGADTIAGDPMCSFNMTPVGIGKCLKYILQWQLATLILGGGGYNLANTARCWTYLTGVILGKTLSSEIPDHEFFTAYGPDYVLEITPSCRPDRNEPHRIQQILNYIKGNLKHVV
Description: In vitro HDAC assay for determination of IC50 values (BIOMOL fluorescent-based), HDAC8. The test is classed as biochemical. The following applies: 500 nM HDAC8 enzyme, 200 μM Flur de lys p53 peptide substrate, 2 h room temperature. As to the method:
Human cDNA library was prepared using cultured SW620 cells. Amplification of human HDAC1 and HDAC8 coding region from this cDNA library was cloned separately into the baculovirus expression pDEST20 vector and pFASTBAC vector respectively (GATEWAY Cloning Technology, Invitrogen Pte Ltd). […] Recombinant baculovirus was prepared using the Bac-To-Bac method following the manufacturer's instruction (Invitrogen Pte Ltd).
as §1
The assay has been carried out in 96 well format and the BIOMOL fluorescent-based HDAC activity assay has been applied. […] Flur de lys Developer was added and the reaction was incubated for 10 min. Briefly, deacetylation of the substrate sensitizes it to the developer, which then generates a fluorophore. The fluorophore is excited with 360 nm light and the emitted light (460 nm) is detected on a fluorometric plate reader (Tecan Ultra Microplate detection system, Tecan Group Ltd.).
as §2

Test [3] has as its system Colo205 human colon cancer cell line. In words: Cell-based proliferation assay for determination of GI50 values, Colo205. The following applies: COLO 205, Colo205 cells, 96 h treatment, cyquant assay, read-out: Colo 205 Gl50. As to the method:
(§3) Human colon cancer cell lines (Colo205) and human breast cancer cell lines (MDA-MB435 and MDA-MB231) were obtained from ATCC. Colo205 cells were cultivated in RPMI 1640 containing 2 mM L-Glutamine, 5% FBS, 1.0 mM Na Pyruvate. MDA-MB231 cells were cultivated in RPMI 1640 containing 2 mM L-glutamine, 5% FBS. MDA-MB435 cells were cultivated in DMEM containing 2 mM L-Glutamine, 5% FBS. Colo205 cells were seeded in 96-wells plate at 5000 cells per well respectively. MDA-MB435 and MDA-MB231 cells were seeded in 96-wells plate at 6000 cells per well. The plates were incubated at 37° C., 5% CO2, for 24 h. Cells were treated with compounds at various concentrations for 96 h. Cell growth was then monitored using cyquant cell proliferation assay (Invitrogen Pte Ltd). Dose response curves were plotted to determine GI50 values for the compounds using XL-fit (ID Business Solution, Emeryville, Calif.).

The test system of test [4] is MDA-MB231 human breast cancer cell line. In words: Cell-based proliferation assay for determination of GI50 values, MDA-MB231. The following applies: MDA-MB231 cells, 96 h treatment, cyquant assay. On the procedure: as §3
The test system of test [5] is MDA-MB435 human breast cancer cell line. In words: Cell-based proliferation assay for determination of GI50 values, MDA-MB435. Conditions: MDA-MB435 cells, 96 h treatment, cyquant assay. As to the method:
as §3

Test [6] deals with acetylated histone H3 in Colo205 cells. In words: Histone acetylation assay (western blot), histone H3. The following applies: Colo205 cells, 0.1, 1, 5 and 10 μM, 24 h. The test is classed as cell-based, human. On the set-up: key: “Active” means accumulation of acetylated histone was observed when compared with control (without compound). As to the method:
(§4) A hallmark of histone deacetylase (HDAC) inhibition is the increase in the acetylation level of histones. Histone acetylation, including H3, H4, H2A and H2B can be detected by immuno-blotting (western-blot). Colo205 cells, approximately 1.5×10^6 cells/10 cm dish, were seeded in the previously described medium, cultivated for 24 h and subsequently treated with HDAC inhibitory agents at 0.1, 1, 5 and 10 μM final concentration. After 24 h, cells were harvested and lysed according to the instruction from Sigma Mammalian Cell Lysis Kit. The protein concentration was quantified using BCA method (Sigma Pte Ltd). The protein lysate was separated using 4-12% bis-tris SDS-PAGE gel (Invitrogen Pte Ltd) and was transferred onto PVDF membrane (BioRad Pte Ltd). The membrane was probed separately using primary antibody specific for acetylated H3, acetylated H4 or acetylated H2A (Upstate Pte Ltd). The detection antibody, goat anti rabbit antibody conjugated with Horse radish peroxidase (HRP) was used according to the manufacturer instruction (Pierce Pte Ltd). After removing the detection antibody from the membrane, an enhanced chemiluminescent substrate for detection of HRP (Pierce Pte Ltd) was added onto the membrane. After removing the substrate, the membrane was exposed to an X-ray film (Kodak) for 1 sec-20 mins. The X-ray film was developed using the X-ray film processor. The density of each band observed on the developed film could be analysed using UVP Bioimaging software (UVP, Inc, Upland, Calif.). The values were then normalized against the density of actin in the corresponding samples to obtain the expression of the protein.

In test [7] the test system is acetylated histone H4 in Colo205 cells. In words: Histone acetylation assay (western blot), histone H4. The format is cell-based, human. Conditions: Colo205 cells, 0.1, 1, 5 and 10 μM, 24 h. Also noted: key: “Active” means accumulation of acetylated histone was observed when compared with control (without compound). As to the method: as §4

Structures are written as SMILES.

T1 sequence (Q13547 whole entry): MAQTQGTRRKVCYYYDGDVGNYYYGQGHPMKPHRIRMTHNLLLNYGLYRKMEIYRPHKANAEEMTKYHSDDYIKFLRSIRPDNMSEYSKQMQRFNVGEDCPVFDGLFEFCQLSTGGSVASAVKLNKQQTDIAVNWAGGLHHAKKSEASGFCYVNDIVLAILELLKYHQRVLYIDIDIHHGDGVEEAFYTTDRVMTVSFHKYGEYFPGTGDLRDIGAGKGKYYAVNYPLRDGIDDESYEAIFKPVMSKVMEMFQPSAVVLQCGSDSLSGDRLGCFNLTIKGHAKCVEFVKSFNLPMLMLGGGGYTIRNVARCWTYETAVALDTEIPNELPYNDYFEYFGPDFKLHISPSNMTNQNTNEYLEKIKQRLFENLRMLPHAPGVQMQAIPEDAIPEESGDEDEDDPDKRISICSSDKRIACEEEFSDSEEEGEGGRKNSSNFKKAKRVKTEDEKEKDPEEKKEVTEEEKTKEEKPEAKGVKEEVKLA

In general, IC50 refers to the midpoint of a concentration-inhibition curve. For `Cc1ccc(S(=O)(=O)NC(=O)NCCCCCC(=O)NO)cc1` [Example 1, 6-[3-(toluene-4-sulfonyl)ureido]-hexanoic acid hydroxyamide], the IC50 in test [1] is more than 100000 nM; in test [2] it was 790 nM.
`Cc1ccc(S(=O)(=O)NC(=O)Nc2ccc(/C=C/C(=O)NO)cc2)cc1` [Example 2]: the IC50 in test [1] is 2610 nM; in test [2], 40 nM.
The like results for `Cc1ccc(S(=O)(=O)NC(=O)NCc2ccc(C(=O)NO)cc2)cc1` [Example 4] were, in that order, 2920 nM and 49 nM.
The like results for `Cc1ccc(S(=O)(=O)NC(=O)Nc2ccc(CC(=O)NO)cc2)cc1` [Example 5, N-Hydroxy-2-{4-[3-(toluene-4-sulfonyl)ureido]-phenyl}acetamide] were, in that order, more than 100000 nM and 140 nM.
As for `O=C(NCc1ccc(C(=O)NO)cc1)NC(=O)c1ccccc1` [Example 6, 4-(3-Benzoyl-ureidomethyl)-N-hydroxy-benzamide], the IC50 is 130 nM in test [1] and 41 nM in test [2]. Besides, in test [3], the GI50 was 1910 nM. Also, the “MDA-MB231 Gl50” value in test [4] came to 1.92 µM. The “MDA-MB435 Gl50” value in test [5] was determined as 1.24 µM. Moreover, the “Histone 3 acetylation” value in test [6] is listed as “Active”. For the same compound, in test [7], the “Histone 4 acetylation” value is listed as “Active”.
In the case of `O=C(Cc1cccc(NC(=O)NC(=O)c2ccccc2)c1)NO` [Example 7, 2-[3-(3-Benzoyl-ureido)-phenyl]-N-hydroxy-acetamide], the values for the IC50 in test [1] and in test [2] were more than 100000 nM and 150 nM, respectively.
The corresponding values for `O=C(Cc1ccc(NC(=O)NC(=O)c2ccccc2)cc1)NO` [Example 8, 2-[4-(3-Benzoyl-ureido)-phenyl]-N-hydroxy-acetamide] are more than 100000 nM and 72 nM.
Regarding `O=C(CCCCCCCNC(=O)NC(=O)c1ccccc1)NO` [Example 12, 8-(3-Benzoyl-ureido)-octanoic acid hydroxyamide], the IC50 in test [1] was 98 nM; in test [2] it was 400 nM. The GI50 in test [3] came out at 8030 nM.
Consider `O=C(CCCCCCNC(=O)NC(=O)c1ccccc1)NO` [Example 13, 7-(3-Benzoyl-ureido)-heptanoic acid hydroxyamide], for which the IC50 was determined as 150 nM in test [1] and 270 nM in test [2]. The GI50 in test [3] amounted to 2680 nM. Moreover, the “Histone 3 acetylation” value in test [6] is reported as “Active”.
As to `Cc1ccc(S(=O)(=O)NC(=O)NCCCCCCCC(=O)NO)cc1` [Example 14], the IC50 in test [1] is 1130 nM; in test [2], 51 nM.
Consider `O=C(CCCCCNC(=S)NC(=O)c1ccccc1)NO` [Example 18, 6-(3-Benzoyl-thioureido)-hexanoic acid hydroxyamide], for which the IC50 was determined as 27 nM in test [1] and 520 nM in test [2]. For the same compound, the GI50 in test [3] is 2670 nM. For the same compound, the “Histone 3 acetylation” value in test [6] is recorded as “Active”.
On to `O=C(/C=C/c1ccc(CN(CCc2ccccc2)C(=O)NC(=O)c2ccccc2)cc1)NO` [Example 23, 3-[4-(3-Benzoyl-1-phenethyl-ureidomethyl)-phenyl]-N-hydroxy-acrylamide], for which the IC50 in test [1] amounted to 12 nM; in test [2], 200 nM. Also, the GI50 in test [3] is 150 nM. In test [4], the “MDA-MB231 Gl50” value was 0.26 µM. Also, the “Histone 3 acetylation” value in test [6] is reported as “Active”.
As for `O=C(/C=C/c1ccc(CN(CCc2ccc(Br)cc2)C(=O)NC(=O)c2ccccc2)cc1)NO` [Example 25, 3-(4-{3-Benzoyl-1-[2-(4-bromo-phenyl)-ethyl]-ureidomethyl}-phenyl)-N-hydroxy-acrylamide], in test [3], the GI50 came to 160 nM.
On to `O=C(NO)c1ccc(CN2CCN(C(=O)NC(=O)c3ccccc3)CC2)cc1` [Example 30, 4-(4-Benzoylaminocarbonyl-piperazin-1-ylmethyl)-N-hydroxy-benzamide], for which the IC50 in test [1] is 2870 nM; in test [2] it was 460 nM.
`O=C(/C=C/c1ccc(CN(CCN2CCCCC2)C(=O)NC(=O)c2ccccc2)cc1)NO` [Example 46, 3-{4-[3-Benzoyl-1-(2-piperidin-1-yl-ethyl)-ureidomethyl]-phenyl}-N-hydroxy-acrylamide]: the IC50 was determined as 48 nM in test [1] and 230 nM in test [2]. In test [3], the GI50 is 630 nM. Also, in test [6], the “Histone 3 acetylation” value is given as “Active”.
In the case of `O=C(/C=C/c1ccc(CN(CCN2CCCC2)C(=O)NC(=O)c2ccccc2)cc1)NO` [Example 47, 3-{4-[3-Benzoyl-1-(2-pyrrolidin-1-yl-ethyl)-ureidomethyl]-phenyl}-N-hydroxy-acrylamide], the IC50 in test [1] was determined as 24 nM; in test [2], 250 nM.
